Where two headings read alike, the source gives them in different places.
Tested on: HIV-1 (NL4-3 strain)
Assay: Assay for Inhibition of HIV Replication (kinetic assay, MT4-gag-GFP reporter cell line; VIKING)
Format: cell-based
Description: This assay is a kinetic assay that employs a reporter cell line (MT4-gag-GFP) to quantify the number of new cells infected in each round of replication.
MT4-GFP cells (250,000 cells/ml) were bulk-infected with HIV-1 (NL4-3 strain) at low multiplicity of infection (MOI) in RPMI cell culture medium+10% FBS for 24 hours. Cells were then washed once in RPMI cell culture medium+10% FBS and resuspended in RPMI cell culture medium+0% or 10% or 100% normal human serum (NHS). Test compounds were serial-diluted in DMSO on an ECHO® liquid handler. The infected MT4-GFP cells were added to a 384-well poly-D-lysine coated black plate with clear bottom in which the diluted test compounds were placed. The cells were seeded at 8,000 cells per well and the final DMSO concentration was 0.4%. The infected cells (Green GFP cells) were quantified at both 24 and 48 hours post incubation using Acumen eX3. Viral reproductive ratio (R0) was determined using the number of infected cells at 48 hours divided by the number of infected cells at 24 hours. Percent viral growth inhibition was calculated by [1-(R-Rtripledrug),/(RDMSO-Rtripledrug)]*100. Compound potency IP or IC50 was determined by a 4-parameter dose response curve analysis. In vitro potency in the cell-based assay in the absence of normal human serum (NHS) and the presence of 100% NHS.

[1] = MT4-GFP cells infected with HIV-1 NL4-3, 0% normal human serum (NHS), read-out: VIKING IP50 (nM) with 0% NHS
[2] = MT4-GFP cells infected with HIV-1 NL4-3, 100% normal human serum (NHS), read-out: VIKING IP50 (nM) with 100% NHS
[3] = Human immunodeficiency virus 1, NL43, MT4-GFP cells infected with HIV-1 NL4-3, 0% normal human serum (NHS), read-out: VIKING IP50 (nM) with 0% NHS
[4] = Human immunodeficiency virus 1, NL43, MT4-GFP cells infected with HIV-1 NL4-3, 100% normal human serum (NHS), read-out: VIKING IP50 (nM) with 100% NHS

SMILES	IC50 [1]	IC50 [2]	IC50 [3]	IC50 [4]
O=C(NCc1ccccc1F)c1c2n3c(c(O)c1=O)C(=O)N1CCOC1C3CC2 (single isomer, unassigned) [Compound 11]	1.09 nM	589 nM	–	–
CCNC1C[C@H]2[C@H]3OC4CCC(C4)N3C(=O)c3c(O)c(=O)c(C(=O)NCc4ccc(F)cc4F)c1n32 (stereo partly shown) [Compound 177]	11.2 nM	191 nM	–	–
CCN1C[C@H](C)N2C(=O)c3c(O)c(=O)c(C(=O)NCc4cccc(Cl)c4F)c4n3C(CC4)C12 (stereo partly shown) [Compound 112]	0.806 nM	40.4 nM	–	–
CCNC1C[C@@H]2[C@H]3OC4CCC(C4)N3C(=O)c3c(O)c(=O)c(C(=O)NCc4ccc(F)cc4F)c1n32 (stereo partly shown) [Compound 175]	20.8 nM	78.8 nM	–	–
CCNC1CC2C3OCCCN3C(=O)c3c(O)c(=O)c(C(=O)NCc4cccc(F)c4F)c1n32 (stereo not shown) [Compound 186]	9.86 nM	36.5 nM	–	–
CN1CCCN2C(=O)c3c(O)c(=O)c(C(=O)NCc4cccc(Cl)c4F)c4n3C(CC4)C12 (single isomer, unassigned) [Compound 86]	0.426 nM	9.17 nM	–	–
O=C(NCc1ccc(F)cc1)c1c2n3c(c(O)c1=O)C(=O)N1C4CCC(C4)OC1C3CC2 (stereo not shown) [Compound 160]	–	73.1 nM	4.14 nM	–
CC(=O)N1C[C@H](C)N2C(=O)c3c(O)c(=O)c(C(=O)NCc4cccc(Cl)c4F)c4n3C(CC4)C12 (stereo partly shown) [Compound 120]	1.19 nM	24.5 nM	–	–
CCNC1CC2C3OCCCN3C(=O)c3c(O)c(=O)c(C(=O)NCc4ccc(F)cc4F)c1n32 (stereo not shown) [Compound 205]	11.3 nM	116 nM	–	–
O=C(NCc1ccccc1F)c1c2n3c(c(O)c1=O)C(=O)N1CCOC1C3CC2 (single isomer, unassigned) [Compound 13]	0.827 nM	5520 nM	–	–
CCNC1CC2C3OCCCN3C(=O)c3c(O)c(=O)c(C(=O)NCc4ccc(F)cc4F)c1n32 (stereo not shown) [Compound 201]	8.98 nM	2060 nM	–	–
O=C(NCc1cccc(Cl)c1F)c1c2n3c(c(O)c1=O)C(=O)N1CCCOC1C3CC2 (single isomer, unassigned) [Compound 50]	0.901 nM	1070 nM	–	–
C[C@@H]1COC2C3CCc4c(C(=O)NCc5ccc(F)cc5F)c(=O)c(O)c(n43)C(=O)N21 (stereo partly shown) [Compound 32]	–	–	0.671 nM	101 nM
CCNC1CC2C3OCCCN3C(=O)c3c(O)c(=O)c(C(=O)NCc4cccc(Cl)c4F)c1n32 (stereo not shown) [Compound 200]	10.1 nM	67.3 nM	–	–
O=C(NCc1cccc(Cl)c1F)c1c2n3c(c(O)c1=O)C(=O)N1CCCO[C@H]1[C@H]3CC2 [Compound 47]	–	–	2.39 nM	2680 nM
CCNC1CC2C3OCCCN3C(=O)c3c(O)c(=O)c(C(=O)NCc4c(F)cc(F)cc4F)c1n32 (stereo not shown) [Compound 178]	16 nM	6090 nM	–	–
O=C(NCc1ccc(F)c(Cl)c1)c1c2n3c(c(O)c1=O)C(=O)N1CCOC1C3CC2 (single isomer, unassigned) [Compound 23]	1.06 nM	2190 nM	–	–
CCNC1CC2C3OCCCN3C(=O)c3c(O)c(=O)c(C(=O)NCc4c(F)cc(F)cc4F)c1n32 (stereo not shown) [Compound 183]	13.3 nM	3570 nM	–	–
O=C(NCc1c(F)cccc1F)c1c2n3c(c(O)c1=O)C(=O)N1CCOC1C3CC2 (single isomer, unassigned) [Compound 15]	0.609 nM	373 nM	–	–
C[C@@H]1COC2C3CCc4c(C(=O)NCc5ccc(F)cc5F)c(=O)c(O)c(n43)C(=O)N21 (single isomer, unassigned) [Compound 33]	–	–	0.543 nM	1940 nM
CN1CCCN2C(=O)c3c(O)c(=O)c(C(=O)NCc4cccc(Cl)c4F)c4n3C(CC4)C12 (single isomer, unassigned) [Compound 87]	0.875 nM	1000 nM	–	–
C[C@H]1CNC2C3CCc4c(C(=O)NCc5cccc(Cl)c5F)c(=O)c(O)c(n43)C(=O)N21 (stereo partly shown) [Compound 89]	0.709 nM	120 nM	–	–
COC1CC2C3OCCN3C(=O)c3c(O)c(=O)c(C(=O)NCc4ccc(F)cc4F)c1n32 (single isomer, unassigned) [Compound 74]	2.19 nM	181 nM	–	–
C[C@H]1CN2C(=O)c3c(O)c(=O)c(C(=O)NCc4ccc(F)cc4F)c4n3C(CC4)C2N1 (stereo partly shown) [Compound 97]	4.3 nM	48.3 nM	–	–
CCNC1CC2C3OCCCN3C(=O)c3c(O)c(=O)c(C(=O)NCc4ccc(F)cc4F)c1n32 (stereo not shown) [Compound 207]	5.21 nM	140 nM	–	–

SMILES	IC50 [1]	IC50 [2]	IC50 [3]	IC50 [4]
O=C(NCc1c(F)cc(F)cc1F)c1c2n3c(c(O)c1=O)C(=O)N1C4CCC(C4)OC1C3CC2 (stereo not shown) [Compound 168]	–	1620 nM	3.72 nM	–
CC(=O)N1C2C3CCc4c(C(=O)NCc5cccc(Cl)c5F)c(=O)c(O)c(n43)C(=O)N2C[C@@H]1C (stereo partly shown) [Compound 122]	–	–	2.17 nM	30.1 nM
CN1CCCN2C(=O)c3c(O)c(=O)c(C(=O)NCc4cccc(Cl)c4F)c4n3C(CC4)C12 (single isomer, unassigned) [Compound 84]	0.762 nM	37.5 nM	–	–
C[C@H]1CN2C(=O)c3c(O)c(=O)c(C(=O)NCc4ccc(F)cc4F)c4n3C(CC4)C2N1 (stereo partly shown) [Compound 98]	1.48 nM	16 nM	–	–
C[C@H]1CN2C(=O)c3c(O)c(=O)c(C(=O)NCc4ccc(F)cc4F)c4n3C(CC4)C2N1 (stereo partly shown) [Compound 95]	–	–	2.59 nM	124 nM
O=C(NCc1ccc(F)cc1)c1c2n3c(c(O)c1=O)C(=O)N1CCCOC1C3CC2 (single isomer, unassigned) [Compound 54]	0.654 nM	904 nM	–	–
C[C@H]1CN2C(=O)c3c(O)c(=O)c(C(=O)NCc4cccc(Cl)c4F)c4n3C(CC4)C2N1C (stereo partly shown) [Compound 102]	–	–	1.05 nM	579 nM
CN1CCN2C(=O)c3c(O)c(=O)c(C(=O)NCc4ccc(F)cc4F)c4n3C(CC4)C12C (stereo not shown) [Compound 140]	0.557 nM	11.3 nM	–	–
CCNC1C[C@@H]2[C@H]3OC4CCC(C4)N3C(=O)c3c(O)c(=O)c(C(=O)NCc4ccc(F)cc4F)c1n32 (stereo partly shown) [Compound 174]	–	–	30.2 nM	114 nM
O=C(NCc1ccccc1F)c1c2n3c(c(O)c1=O)C(=O)N1CCOC1C3CC2 (single isomer, unassigned) [Compound 10]	–	226 nM	0.813 nM	–
CN1CCCN2C(=O)c3c(O)c(=O)c(C(=O)NCc4ccc(F)cc4F)c4n3C(CC4)C12 (single isomer, unassigned) [Compound 81]	–	24.2 nM	1.15 nM	–
C[C@H]1CN2C(=O)c3c(O)c(=O)c(C(=O)NCc4cccc(Cl)c4F)c4n3C(CC4)C2N1 (stereo partly shown) [Compound 93]	1.14 nM	–	–	49 nM
CCNC1CC2C3OCCCN3C(=O)c3c(O)c(=O)c(C(=O)NCc4cccc(Cl)c4F)c1n32 (stereo not shown) [Compound 197]	14 nM	15100 nM	–	–
O=C(NCc1ccc(F)c(Cl)c1F)c1c2n3c(c(O)c1=O)C(=O)N1C4CCC(C4)OC1C3CC2 (stereo not shown) [Compound 156]	11.8 nM	5270 nM	–	–
CN1CCCN2C(=O)c3c(O)c(=O)c(C(=O)NCc4ccc(F)cc4F)c4n3C(CC4)C12 (single isomer, unassigned) [Compound 82]	1.17 nM	550 nM	–	–
CN1CCCN2C(=O)c3c(O)c(=O)c(C(=O)NCc4cccc(Cl)c4F)c4n3C(CC4)C12 (single isomer, unassigned) [Compound 85]	0.703 nM	17.8 nM	–	–
CCNC1CC2C3OCCCN3C(=O)c3c(O)c(=O)c(C(=O)NCc4cccc(Cl)c4F)c1n32 (stereo not shown) [Compound 198]	5.29 nM	96.9 nM	–	–
CC(C)N1C2C3CCc4c(C(=O)NCc5cccc(Cl)c5F)c(=O)c(O)c(n43)C(=O)N2C[C@@H]1C (stereo partly shown) [Compound 106]	–	–	3.68 nM	88.9 nM
CCNC1CC2C3OCCCN3C(=O)c3c(O)c(=O)c(C(=O)NCc4cccc(F)c4F)c1n32 (stereo not shown) [Compound 188]	16.3 nM	462 nM	–	–
O=C(NCc1cccc(F)c1F)c1c2n3c(c(O)c1=O)C(=O)N1C4CCC(C4)OC1C3CC2 (stereo not shown) [Compound 166]	5.39 nM	50.6 nM	–	–
O=C(NCc1ccc(F)cc1F)c1c2n3c(c(O)c1=O)C(=O)N1CCCOC1C3CC2 (single isomer, unassigned) [Compound 57]	0.919 nM	871 nM	–	–
O=C(NCc1cccc(Cl)c1F)c1c2n3c(c(O)c1=O)C(=O)N1CCCO[C@@H]1[C@@H]3CC2 (single isomer, unassigned) [Compound 48]	–	–	1.31 nM	27.3 nM
O=C(NCc1c(F)cc(F)cc1F)c1c2n3c(c(O)c1=O)C(=O)N1C4CCC(C4)OC1C3CC2 (stereo not shown) [Compound 171]	2.82 nM	74.6 nM	–	–
CCNC1CC2C3OCCCN3C(=O)c3c(O)c(=O)c(C(=O)NCc4cccc(F)c4F)c1n32 (stereo not shown) [Compound 191]	12.6 nM	63.6 nM	–	–
C[C@H]1CCOC2C3CCc4c(C(=O)NCc5ccc(F)cc5F)c(=O)c(O)c(n43)C(=O)N21 (single isomer, unassigned) [Compound 61]	22.1 nM	–	–	8000 nM

Reference: patent US10829499B2, “Tetracyclic heterocycle compounds useful as HIV integrase inhibitors” (MERCK SHARP & DOHME CORP., priority 2016, dated 2020)
